Experimental data: PMC4626104, “Inhibition on Proteasome β1 Subunit Might Contribute to the Anti-Cancer Effects of Fangchinoline in Human Prostate Cancer Cells” (PLoS ONE, 2015)
Read-outs that look alike come from different tables or passages of the source.

Tests used:
[1] = system: PC-3 cells; assay: MTT assay of cell proliferation, PC-3 cells; assay type: cell-based; conditions: Homo sapiens, read-out: IC50 inhibiting cell proliferation
Description: (§1) The inhibitive effects of fangchinoline on proliferation of PC-3 cells or LnCap cells was observed by checking cell viability of cells using MTT assay as described before. Briefly, cells were seeded in 96-well plates at a density of 5×10^4 cells/mL for PC-3 cell and 4×10^4 cells/mL for LnCap cells. After overnight culture, the media were changed into fresh media containing various concentrations of fangchinoline or 0.1% DMSO (solvent control) for 24, 48 h or 72 h. Cell viability was evaluated by measuring the mitochondrial-dependent conversion of the yellow tetrazolium salt MTT to purple formazan crystals by metabolic active cells. The optical density (proportional to the number of live cells) was assessed with a Microplate Reader Bio-Rad 550 at 570 nm. IC50 value (half-maximal inhibitory concentration) was calculated by the Logit method.

[2] = target: T1, recombinant human proteasome β1 subunit (Homo sapiens, UniProt P28072); assay: Surface plasmon resonance (Biacore) binding assay; conditions: Biacore, 25°C, 1:1 Langmuir model
T1 construct: His-Tag; made in house; host or cells: Escherichia coli
T1 sequence (P28072 1-239): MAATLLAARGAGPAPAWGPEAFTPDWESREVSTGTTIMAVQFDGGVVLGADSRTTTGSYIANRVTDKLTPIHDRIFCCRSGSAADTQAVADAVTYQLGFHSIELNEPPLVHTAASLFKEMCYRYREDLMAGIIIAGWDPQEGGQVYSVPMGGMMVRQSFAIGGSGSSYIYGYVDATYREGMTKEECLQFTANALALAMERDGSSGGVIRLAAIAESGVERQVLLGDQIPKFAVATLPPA
Description: The recombinant human proteasome β1 subunit, product of PSMB6 gene, was expressed as His-Tag proteins using Escherichia coli, and then purified by affinity chromatography as reported in our previous study. The binding affinities of fangchinoline or tetrandrine to recombinant proteasome catalytic β1 subunit, were assayed in vitro using an Biacore 3000 instrument (Biacore AB, Rapsgatan 7, S-754 50 Uppsala, Sweden) as reported before. Briefly, recombinant proteasome β1 subunit protein was immobilized on a CM5 sensor chip as ligand in 11624.5 RU with N-ethyl-N’-(3-dimethylaminopropyl) carbodiimide and N-hydroxysuccinimide according to the standard primary amine-coupling procedures, and HBS-EP (10 mM HEPES, 150 mM NaCl, 3 mM EDTA, 0.005% (v/v) surfactant P20, pH 7.4) was used as the running buffer. Equilibration of the baseline was performed by a continuous flow of HBS-EP through the chip surface for 1 to 2 h. Biacore data were collected at 25°C with HBS-EP as the running buffer at a constant flow of 20 μL/min. Fangchinoline or tetradrine was serially diluted into the running buffer to 0, 2.4, 3.43, 4.90, 7.0, 10 and 20 μM. The samples were injected into the channels at a flow rate of 20 μL/min, followed by washing with the running buffer. The binding responses were recorded continuously in response units (RU) at a frequency of 1Hz as sensorgrams and presented as a function of time. The association (k a) and dissociation (k d) rate constants, the equilibrium dissociation constant ( KD=kd/ka ) were determined by analysis of the sensorgram-curves obtained at different concentrations of the compound by use of BIA evaluation software version 3.1 (Biacore) and the 1:1 Langmuir binding fitting model.

[3] = system: PC-3 cells; assay: Flow cytometric analysis of apoptosis (Annexin V/PI) in PC-3 cells; assay type: cell-based, human; conditions: 24 h
Description: The induction of cell cycle arrest and apoptosis by fangchinoline in PC-3 cells was observed by using flow cytometric analysis as described in our previous reports. Briefly, for flow cytometry analysis of cell cycle, cells were collected after treatment, washed with PBS and then fixed with 70% ethanol at 4°C for overnight. After PBS washes, cells were re-suspended in staining buffer (10 mg/mL RNase A and […] propidium iodide in cold PBS) for 30 min in dark at room temperature and then analyzed using FACSCalibur Flow Cytometer. For flow cytometric analysis of apoptosis, Alexa Fluor 488 Annexin V & PI /Dead cell Apoptosis Kit (Invitrogen) was used. Cells were collected after treatment, washed with PBS and then resuspended in binding buffer and then incubated with Annexin V-FITC and propidium iodide for 15 min in dark at room temperature. Then, flow cytometric analysis was conducted and data analysis was performed with CellQuest software.

[4] = system: PSMB6 knockdown PC-3 cells; assay: MTT assay in PC-3 cells with knockdown of proteasome β1 subunit (PSMB6 siRNA); assay type: cell-based, human; conditions: 72 h treatment, vs negative control cells
Description: as §1
Validated siRNAs for PSMB6 (Sigma-Aldrich) were transfected into PC-3 cells by using Lipofectamine RNAiMAX (Invitrogen) according to the manufacturer’s protocol. Scrambled negative control siRNAs (Sigma-Aldrich) were used as negative control. Expression levels of PSMB6 (proteasome β1 subunit) in wide type cells, PSMB6 knockdown cells (cells treated with siRNAs for PSMB6), negative control cells (cells transfected with scrambled negative control siRNAs) were checked using Western blotting assay. […]

With COc1ccc2cc1Oc1ccc(cc1)C[C@H]1c3cc(c(OC)cc3CCN1C)Oc1c(O)c(OC)cc3c1[C@H](C2)N(C)CC3 [fangchinoline] the IC50 ([1]; 24 h) was 27.5 ± 3.35 µM, the IC50 ([1]; 48 h) was 13.1 ± 1.58 µM and the IC50 ([1]; 72 h) was 7.25 ± 0.312 µM. The “Dissociation (k d)” value [2] was 0.0353 S^-1, the Kd ([2]; read-out: Equilibrium dissociation (K D)) was 4.68 µM and the kon ([2]; pH 7.4, read-out: Association (k a)) was 7550 M⁻¹ s⁻¹. For the same compound, the “Percentage (%) of apoptotic cells (Annexin^+/PI^+)” value (“Percentage (%) of apoptotic cells” below) ([3]; 5 μM) was 6.74±1.14 %, the “Percentage (%) of apoptotic cells” value ([3]; 8 μM) was 10.79±0.51 % and the “Percentage (%) of apoptotic cells” value ([3]; 12 μM) was 13.53±0.19 %. The “Percentage (%) of apoptotic cells” value ([3]; 18 μM) was 28.10±5.93 %, the “Percentage (%) of apoptotic cells” value ([3]; 27 μM) was 37.52±4.04 % and the “Percentage (%) of apoptotic cells” value ([3]; 40 μM) was 49.77±2.23 %. For the same compound, the “Effect of knockdown of proteasome β1 subunit on proliferation inhibition” value [4] was “ameliorated proliferation-inhibiting effects”.
